The values below come from US8637684B2, “Tautomycetin and tautomycetin analog biosynthesis” (Wisconsin Alumni Research Foundation, priority 2010, dated 2014).

The target in assay [1] is SHP1 (Homo sapiens, UniProt P29350). The experiment in a line: PTP activity assay with pNPP as substrate: SHP1. The settings on record: pNPP as substrate at Km, pH 7.0, 25° C., I = 0.15 M. In kind it is biochemical.
Description: (§3) The PTP activity was assayed using pNPP as a substrate at 25° C. in 50 mM 3,3-dimethylglutarate buffer, pH 7.0, containing 1 mM EDTA with an ionic strength of 0.15 M adjusted by NaCl. TTM, TTN and the engineered analogs were analyzed for inhibition of a panel of PTPs at 10 μM compound concentration. For each enzyme screened, test compounds were diluted to 20 μM in 100 μL and combined with 50 μL pNPP at a concentration of 4×Km. The reaction was initiated by the addition of 50 μL of 4× concentrated enzyme and pNPP was allowed to convert to the product p-nitrophenol. The reaction was quenched by the addition of 50 μL of 5N NaOH. Nonenzymatic hydrolysis of pNPP was corrected by measuring the control without the addition of enzyme. Production of p-nitrophenol was monitored by a Spectra MAX385 microplate spectrophotometer (Molecular Devices) at 405 nm using a molar extinction coefficient of 18,000 M^−1 cm^−1. IC50 values were calculated by fitting the absorbance at 405 nm versus inhibitor concentration to the following equation: AI/A0=IC50/(IC50+[I]) where AI is the absorbance at 405 nm of the sample in the presence of inhibitor; Ao is the absorbance at 405 nm in the absence of inhibitor; and [I] is the concentration of the inhibitor.
In assay [2] the target is T1, HePTP (Homo sapiens, UniProt P35236).
T1 sequence (P35236 1-360): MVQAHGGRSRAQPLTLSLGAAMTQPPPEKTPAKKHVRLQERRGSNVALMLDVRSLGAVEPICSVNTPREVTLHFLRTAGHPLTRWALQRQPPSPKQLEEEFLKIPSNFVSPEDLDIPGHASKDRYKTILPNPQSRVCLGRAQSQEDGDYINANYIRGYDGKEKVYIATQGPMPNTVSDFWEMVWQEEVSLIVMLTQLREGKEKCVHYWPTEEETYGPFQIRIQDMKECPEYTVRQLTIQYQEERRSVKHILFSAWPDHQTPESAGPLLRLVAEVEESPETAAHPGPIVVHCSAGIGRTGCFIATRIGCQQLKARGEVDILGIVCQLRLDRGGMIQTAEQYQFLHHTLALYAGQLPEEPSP
As to the kind of experiment: PTP activity assay with pNPP as substrate: HePTP. The conditions noted are these: pNPP as substrate at Km, pH 7.0, 25° C., I = 0.15 M. In kind it is biochemical.
Description: as §3

The test system of assay [3] is TCR-mediated tyrosine phosphorylation in Jurkat T cells. As to the kind of experiment: Anti-CD3 (TCR) induced tyrosine phosphorylation in Jurkat T cells, immunoblot. The conditions noted are these: 2-4 μM, 2 hours pretreatment, anti-CD3 stimulation. The class given is cell-based. Here is the method:
Jurkat T cells were grown at 37° C. under an atmosphere of 5% CO2 in RPMI medium 1640 supplemented with 10% FBS. Cells were pretreated with different concentrations of TTN, TTN D-1, or TTM for 2 hours and stimulated with […] anti-CD3 antibody (OKT3; eBioscience) for 5 min and 30 min, respectively. Subsequently, cells were spinned down at 2000 rpm in 4° C., and cell pellets were lysed in 50 mM Tris-HCl (pH 7.5), 150 mM NaCl, 10% glycerol, 1% NP-40, 50 mM NaF, 10 mM pyrophosphate, 5 mM idoacetate, 1 mM sodium orthovanadate, and the protease inhibitor mixture. After 30 min lysing on ice, the cell lysates were centrifuged at 13,200 rpm for 15 min. Total cellular proteins were separated by SDS/PAGE and transferred electrophoretically to nitrocellulose membrane, which was immunoblotted by appropriate antibodies followed by incubation with HRP-conjugated secondary antibodies. Blots were developed using Pierce Pico ECL reagent (Thermo) according to the manufacturer's instructions.
TTN induces immunosuppression by suppression of TCR-mediated tyrosine phosphorylation and ERK1/2 activity in T cells (Shim et al., 2002). However, the mechanism of action for TTN's ability to block TCR signaling remains undefined. […]
On the technique in general: A western blot detects proteins with antibodies after separation by electrophoresis.

In assay [4] the test system is SHP2/E76K-expressing hematopoietic progenitors. The experiment in a line: 3H-thymidine incorporation assay of transduced bone marrow LDMNCs with GM-CSF. In kind it is cell-based. The settings on record: 2 μM TTN for 24 hrs, GM-CSF 1 ng/mL. Here is the method:
(§1) Transduced, EGFP+ cells were subjected to ^3H-thymidine incorporation assays, as previously described (Munugalavadla et al., 2007), or plated at a concentration of 8000 cells/mL in 0.9% methylcellulose-based media containing IMDM, 2 mM glutamine, 1% penicillin/streptomycin, 80 μM β-mercaptoethanol, 30% FBS, and GM-CSF 1 ng/mL or with saturating concentrations of growth factors including IL-3 200 U/mL, erythropoietin 4 U/mL, and stem cell factor (SCF) 100 ng/mL. All growth factors were from Peprotech. Cultures were incubated in a humidified incubator at 37° C. in 5% CO2 for 7 days and were scored for total colonies and for morphology to determine colony forming unit (CFU)-granulocyte-macrophage (GM) or CFU-monocyte (M).
(§2) For biochemical studies, macrophage progenitor cells expressing empty vector (MIEG3), wild-type SHP2, or SHP2/E76K were serum- and growth factor-deprived for 24 hours. Cells were pre-treated with DMSO or 2 μM TTN for 2 hours, and then cultures either remained unstimulated or were stimulated with GM-CSF at 50 ng/mL for 60 minutes. […] To provide further evidence that SHP2 is a molecular target of TTN, the inventors determined the X-ray crystal structure of SHP2 in complex with TTN D-1, as crystallization attempts for the SHP2-TTN complex were unsuccessful. […]

Assay [5] concerns hematopoietic progenitors (MIEG3, wild-type SHP2, SHP2/E76K). The experiment in a line: Methylcellulose-based colony assay of transduced bone marrow LDMNCs (CFU-M / CFU-GM). The settings on record: 2 μM TTN, GM-CSF 1 ng/mL, 7 days. In kind it is cell-based. Here is the method:
as §1, §2

The test system of assay [6] is human primary T-cell tyrosine phosphorylation. The settings on record: Shim et al., 2002, cited from earlier work.
For assay [7] the following is noted: literature (Luo et al., 2007; Mitsuhashi et al., 2003, 2008); cited from earlier work.

pIC50: −log10 of the molar value. Where two headings read alike, the source gives them in different places.

SHP1, sequence (P29350 whole entry): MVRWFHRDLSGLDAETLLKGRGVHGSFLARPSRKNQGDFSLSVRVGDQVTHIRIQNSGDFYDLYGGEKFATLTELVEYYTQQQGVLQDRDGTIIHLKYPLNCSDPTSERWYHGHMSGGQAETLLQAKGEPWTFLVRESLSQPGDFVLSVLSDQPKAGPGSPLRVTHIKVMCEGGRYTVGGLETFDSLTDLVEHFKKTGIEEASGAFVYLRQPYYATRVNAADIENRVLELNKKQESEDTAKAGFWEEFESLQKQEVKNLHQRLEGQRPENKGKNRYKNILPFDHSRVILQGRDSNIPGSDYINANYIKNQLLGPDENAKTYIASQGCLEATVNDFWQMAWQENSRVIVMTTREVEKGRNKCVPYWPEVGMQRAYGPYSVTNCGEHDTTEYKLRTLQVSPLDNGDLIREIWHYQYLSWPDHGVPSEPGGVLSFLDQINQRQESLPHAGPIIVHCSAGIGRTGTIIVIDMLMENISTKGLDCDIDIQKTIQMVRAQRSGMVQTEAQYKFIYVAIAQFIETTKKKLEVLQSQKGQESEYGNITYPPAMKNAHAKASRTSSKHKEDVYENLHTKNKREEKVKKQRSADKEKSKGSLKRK

For the substance tautomycetin [TTN], the pIC50 in assay [1] was 4.84; in assay [2], below 4.30. Further, in assay [3], the “effect on TCR-mediated tyrosine phosphorylation” value is given as “efficiently attenuated”. For the same substance, the “effect on GM-CSF-stimulated proliferation of SHP2/E76K-expressing progenitors” value in assay [4] was “effectively reduced the proliferation”. Besides, in assay [5], the “development of CFU-M” value is on record as “reduced in all cells types”. Further, the “concentration inhibiting human primary T-cell tyrosine phosphorylation” value in assay [6] is 1 µg/mL; in assay [6] (same value converted), 1.65 µM. For the same substance, the “concentrations required to exert a cellular effect” value in assay [7] was 1 to 5 µM.

Usually pIC50 stands for the IC50 on a negative log10 scale, so that one unit is a factor of ten.
